Experimental data taken from PubChem BioAssay (NCI).
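Each compound was tested at five concentrations against cells in 96-well plates for 48 hours. The concentration for 50% growth inhibition is given as GI50. Definition used: TGI = concentration required for complete inhibition of growth.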

Assays:
Assay in all cases: NCI anticancer screen, dose series, 48 h; in the data active = GI50 below about 0.43 µM; inactive = the rest
COLO 205 colon = test system: COLO 205 colon
ACHN renal = test system: ACHN renal
HS 578T breast = test system: HS 578T breast
OVCAR-8 ovarian = test system: OVCAR-8 ovarian
KM12 colon = test system: KM12 colon
HCT-116 colon = test system: HCT-116 colon
SNB-75 CNS = test system: SNB-75 CNS
NCI-H226 lung = test system: NCI-H226 lung
SW-620 colon = test system: SW-620 colon
UO-31 renal = test system: UO-31 renal
PC-3 prostate = test system: PC-3 prostate
UACC-62 melanoma = test system: UACC-62 melanoma
SF-268 CNS = test system: SF-268 CNS
T-47D breast = test system: T-47D breast
MCF7 breast = test system: MCF7 breast
UACC-257 melanoma = test system: UACC-257 melanoma
HL-60(TB) leukemia = test system: HL-60(TB) leukemia
MALME-3M melanoma = test system: MALME-3M melanoma
MDA-MB-231 breast = test system: MDA-MB-231 breast
HCT-15 colon = test system: HCT-15 colon
SF-295 CNS = test system: SF-295 CNS
SN12C renal = test system: SN12C renal
SK-MEL-5 melanoma = test system: SK-MEL-5 melanoma
NCI-H23 lung = test system: NCI-H23 lung
SF-539 CNS = test system: SF-539 CNS
SNB-19 CNS = test system: SNB-19 CNS
OVCAR-3 ovarian = test system: OVCAR-3 ovarian
RPMI-8226 leukemia = test system: RPMI-8226 leukemia
TK-10 renal = test system: TK-10 renal
A498 renal = test system: A498 renal
MOLT-4 leukemia = test system: MOLT-4 leukemia
SK-MEL-2 melanoma = test system: SK-MEL-2 melanoma
CCRF-CEM leukemia = test system: CCRF-CEM leukemia
HCC-2998 colon = test system: HCC-2998 colon
OVCAR-5 ovarian = test system: OVCAR-5 ovarian
IGROV1 ovarian = test system: IGROV1 ovarian
A549 NSCLC = test system: A549 NSCLC
HT29 colon = test system: HT29 colon
MDA-MB-435 = test system: MDA-MB-435
NCI/ADR-RES ovarian = test system: NCI/ADR-RES ovarian
DU-145 prostate = test system: DU-145 prostate
LOX IMVI melanoma = test system: LOX IMVI melanoma
SR leukemia = test system: SR leukemia
NCI-H460 lung = test system: NCI-H460 lung
RXF 393 renal = test system: RXF 393 renal
HOP-92 NSCLC = test system: HOP-92 NSCLC
BT-549 breast = test system: BT-549 breast
NCI-H522 lung = test system: NCI-H522 lung
CAKI-1 renal = test system: CAKI-1 renal
EKVX NSCLC = test system: EKVX NSCLC
HOP-62 NSCLC = test system: HOP-62 NSCLC
K-562 leukemia = test system: K-562 leukemia
SK-MEL-28 melanoma = test system: SK-MEL-28 melanoma
M14 melanoma = test system: M14 melanoma
U251 CNS = test system: U251 CNS

O=C(N/N=C\c1ccc(N(CCCl)CCCl)cc1[N+](=O)[O-])c1cccnc1
> 100 µM: TGI (COLO 205 colon) | TGI (ACHN renal) | TGI (HS 578T breast) | TGI (OVCAR-8 ovarian) | TGI (KM12 colon) | TGI (HCT-116 colon) | TGI (SNB-75 CNS) | TGI (NCI-H226 lung) | TGI (SW-620 colon) | TGI (UO-31 renal) | TGI (PC-3 prostate) | TGI (UACC-62 melanoma) | TGI (SF-268 CNS) | TGI (T-47D breast) | TGI (MCF7 breast) | TGI (UACC-257 melanoma) | TGI (HL-60(TB) leukemia) | TGI (MALME-3M melanoma) | TGI (MDA-MB-231 breast) | TGI (HCT-15 colon) | TGI (SF-295 CNS) | TGI (SN12C renal) | TGI (SK-MEL-5 melanoma) | TGI (NCI-H23 lung) | TGI (SF-539 CNS) | TGI (SNB-19 CNS) | TGI (OVCAR-3 ovarian) | TGI (RPMI-8226 leukemia) | TGI (TK-10 renal) | TGI (A498 renal) | TGI (MOLT-4 leukemia) | TGI (SK-MEL-2 melanoma) | TGI (CCRF-CEM leukemia) | TGI (HCC-2998 colon) | TGI (OVCAR-5 ovarian) | TGI (IGROV1 ovarian) | TGI (A549 NSCLC) | TGI (HT29 colon) | TGI (MDA-MB-435) | TGI (NCI/ADR-RES ovarian) | TGI (DU-145 prostate) | TGI (LOX IMVI melanoma) | TGI (SR leukemia) | TGI (NCI-H460 lung) | TGI (RXF 393 renal) | TGI (HOP-92 NSCLC) | TGI (BT-549 breast) | TGI (NCI-H522 lung) | TGI (CAKI-1 renal) | TGI (EKVX NSCLC) | TGI (HOP-62 NSCLC) | TGI (K-562 leukemia) | TGI (SK-MEL-28 melanoma) | TGI (M14 melanoma) | TGI (U251 CNS)
inactive: GI50 (COLO 205 colon) > 100 µM | GI50 (ACHN renal) > 100 µM | GI50 (HS 578T breast) > 100 µM | GI50 (OVCAR-8 ovarian) > 100 µM | GI50 (KM12 colon) > 100 µM | GI50 (HCT-116 colon) > 100 µM | GI50 (SNB-75 CNS) > 100 µM | GI50 (NCI-H226 lung) > 100 µM | GI50 (SW-620 colon) > 100 µM | GI50 (UO-31 renal) > 100 µM | GI50 (PC-3 prostate) > 100 µM | GI50 (UACC-62 melanoma) > 100 µM | GI50 (SF-268 CNS) > 100 µM | GI50 (T-47D breast) > 100 µM | GI50 (MCF7 breast) > 100 µM | GI50 (UACC-257 melanoma) > 100 µM | GI50 (HL-60(TB) leukemia) > 100 µM | GI50 (MALME-3M melanoma) > 100 µM | GI50 (MDA-MB-231 breast) > 100 µM | GI50 (HCT-15 colon) > 100 µM | GI50 (SF-295 CNS) > 100 µM | GI50 (SN12C renal) > 100 µM | GI50 (SK-MEL-5 melanoma) > 100 µM | GI50 (NCI-H23 lung) > 100 µM | GI50 (SF-539 CNS) > 100 µM | GI50 (SNB-19 CNS) > 100 µM | GI50 (OVCAR-3 ovarian) > 100 µM | GI50 (RPMI-8226 leukemia) > 100 µM | GI50 (TK-10 renal) > 100 µM | GI50 (A498 renal) > 100 µM | GI50 (MOLT-4 leukemia) > 100 µM | GI50 (SK-MEL-2 melanoma) > 100 µM | GI50 (CCRF-CEM leukemia) > 100 µM | GI50 (HCC-2998 colon) > 100 µM | GI50 (OVCAR-5 ovarian) > 100 µM | GI50 (IGROV1 ovarian) > 100 µM | GI50 (A549 NSCLC) > 100 µM | GI50 (HT29 colon) > 100 µM | GI50 (MDA-MB-435) > 100 µM | GI50 (NCI/ADR-RES ovarian) > 100 µM | GI50 (DU-145 prostate) > 100 µM | GI50 (LOX IMVI melanoma) > 100 µM | GI50 (SR leukemia) > 100 µM | GI50 (NCI-H460 lung) > 100 µM | GI50 (RXF 393 renal) > 100 µM | GI50 (HOP-92 NSCLC) > 100 µM | GI50 (BT-549 breast) > 100 µM | GI50 (NCI-H522 lung) > 100 µM | GI50 (CAKI-1 renal) > 100 µM | GI50 (EKVX NSCLC) > 100 µM | GI50 (HOP-62 NSCLC) > 100 µM | GI50 (K-562 leukemia) > 100 µM | GI50 (SK-MEL-28 melanoma) > 100 µM | GI50 (M14 melanoma) > 100 µM | GI50 (U251 CNS) > 100 µM
